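Test compounds were applied to cells in 96-well plates for 48 hours at 5 doses. The concentration for 50% growth inhibition is given as GI50. At the TGI there is no net growth.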
Columns and labels:
Assay in all cases: DTP human tumour cell line panel, 48 h
M14 melanoma = test system: M14 melanoma
NCI-H522 lung = test system: NCI-H522 lung
SF-539 CNS = test system: SF-539 CNS
UACC-257 melanoma = test system: UACC-257 melanoma
OVCAR-4 ovarian = test system: OVCAR-4 ovarian
HS 578T breast = test system: HS 578T breast
PC-3 prostate = test system: PC-3 prostate
CAKI-1 renal = test system: CAKI-1 renal
RPMI-8226 leukemia = test system: RPMI-8226 leukemia
HCC-2998 colon = test system: HCC-2998 colon
IGROV1 ovarian = test system: IGROV1 ovarian
SR leukemia = test system: SR leukemia
HL-60(TB) leukemia = test system: HL-60(TB) leukemia
ACHN renal = test system: ACHN renal
SK-MEL-2 melanoma = test system: SK-MEL-2 melanoma
SK-MEL-28 melanoma = test system: SK-MEL-28 melanoma
HOP-62 NSCLC = test system: HOP-62 NSCLC
HCT-15 colon = test system: HCT-15 colon
LOX IMVI melanoma = test system: LOX IMVI melanoma
UACC-62 melanoma = test system: UACC-62 melanoma
OVCAR-5 ovarian = test system: OVCAR-5 ovarian
COLO 205 colon = test system: COLO 205 colon
DU-145 prostate = test system: DU-145 prostate
RXF 393 renal = test system: RXF 393 renal
U251 CNS = test system: U251 CNS
K-562 leukemia = test system: K-562 leukemia
HCT-116 colon = test system: HCT-116 colon
SNB-19 CNS = test system: SNB-19 CNS
A549 NSCLC = test system: A549 NSCLC
HT29 colon = test system: HT29 colon
NCI/ADR-RES ovarian = test system: NCI/ADR-RES ovarian
OVCAR-8 ovarian = test system: OVCAR-8 ovarian
MCF7 breast = test system: MCF7 breast
KM12 colon = test system: KM12 colon
SNB-75 CNS = test system: SNB-75 CNS
CCRF-CEM leukemia = test system: CCRF-CEM leukemia
OVCAR-3 ovarian = test system: OVCAR-3 ovarian
NCI-H226 lung = test system: NCI-H226 lung
SW-620 colon = test system: SW-620 colon
SF-268 CNS = test system: SF-268 CNS
UO-31 renal = test system: UO-31 renal
SK-MEL-5 melanoma = test system: SK-MEL-5 melanoma
MDA-MB-231 breast = test system: MDA-MB-231 breast
A498 renal = test system: A498 renal
SK-OV-3 ovarian = test system: SK-OV-3 ovarian
NCI-H460 lung = test system: NCI-H460 lung
BT-549 breast = test system: BT-549 breast
MDA-MB-435 = test system: MDA-MB-435
786-0 renal = test system: 786-0 renal
MOLT-4 leukemia = test system: MOLT-4 leukemia
SN12C renal = test system: SN12C renal
SF-295 CNS = test system: SF-295 CNS

SMILES: O=C1C=C(Nc2ccc([N+](=O)[O-])cc2)c2ccccc2C1=O
- GI50 (M14 melanoma): 3.49 µM
- TGI (M14 melanoma): 16.7 µM
- GI50 (NCI-H522 lung): 2.91 µM
- TGI (NCI-H522 lung): 14.4 µM
- GI50 (SF-539 CNS): 3.5 µM
- TGI (SF-539 CNS): 14.7 µM
- GI50 (UACC-257 melanoma): 3.14 µM
- TGI (UACC-257 melanoma): 13.8 µM
- GI50 (OVCAR-4 ovarian): 2.07 µM
- TGI (OVCAR-4 ovarian): 11.2 µM
- GI50 (HS 578T breast): 1.78 µM
- TGI (HS 578T breast): 9.96 µM
- GI50 (PC-3 prostate): 3.7 µM
- TGI (PC-3 prostate): 47.1 µM
- GI50 (CAKI-1 renal): 3.87 µM
- TGI (CAKI-1 renal): 19 µM
- GI50 (RPMI-8226 leukemia): 3.37 µM
- TGI (RPMI-8226 leukemia): 22.4 µM
- GI50 (HCC-2998 colon): 9.09 µM
- TGI (HCC-2998 colon): 22.4 µM
- GI50 (IGROV1 ovarian): 5.99 µM
- TGI (IGROV1 ovarian): 20.8 µM
- GI50 (SR leukemia): 2.55 µM
- TGI (SR leukemia): > 100 µM
- GI50 (HL-60(TB) leukemia): 2.67 µM
- TGI (HL-60(TB) leukemia): 7.19 µM
- GI50 (ACHN renal): 4.3 µM
- TGI (ACHN renal): 17.7 µM
- GI50 (SK-MEL-2 melanoma): 2.12 µM
- TGI (SK-MEL-2 melanoma): 8.47 µM
- GI50 (SK-MEL-28 melanoma): 3.75 µM
- TGI (SK-MEL-28 melanoma): 16.6 µM
- GI50 (HOP-62 NSCLC): 5.69 µM
- TGI (HOP-62 NSCLC): 19.6 µM
- GI50 (HCT-15 colon): 2.42 µM
- TGI (HCT-15 colon): 15.4 µM
- GI50 (LOX IMVI melanoma): 2.34 µM
- TGI (LOX IMVI melanoma): 7.47 µM
- GI50 (UACC-62 melanoma): 1.9 µM
- TGI (UACC-62 melanoma): 5.88 µM
- GI50 (OVCAR-5 ovarian): 13.3 µM
- TGI (OVCAR-5 ovarian): 27.5 µM
- GI50 (COLO 205 colon): 17.4 µM
- TGI (COLO 205 colon): 34.8 µM
- GI50 (DU-145 prostate): 6.94 µM
- TGI (DU-145 prostate): 19.6 µM
- GI50 (RXF 393 renal): 6.6 µM
- TGI (RXF 393 renal): 22.5 µM
- GI50 (U251 CNS): 3.07 µM
- TGI (U251 CNS): 12.9 µM
- GI50 (K-562 leukemia): 0.569 µM
- TGI (K-562 leukemia): 15.3 µM
- GI50 (HCT-116 colon): 2.79 µM
- TGI (HCT-116 colon): 12.4 µM
- GI50 (SNB-19 CNS): 4.71 µM
- TGI (SNB-19 CNS): 18.1 µM
- GI50 (A549 NSCLC): 3.96 µM
- TGI (A549 NSCLC): 16.5 µM
- GI50 (HT29 colon): 18.6 µM
- TGI (HT29 colon): 42.3 µM
- GI50 (NCI/ADR-RES ovarian): 2.93 µM
- TGI (NCI/ADR-RES ovarian): 29.3 µM
- GI50 (OVCAR-8 ovarian): 2.74 µM
- TGI (OVCAR-8 ovarian): 12.6 µM
- GI50 (MCF7 breast): 2.49 µM
- TGI (MCF7 breast): 13.9 µM
- GI50 (KM12 colon): 3.3 µM
- TGI (KM12 colon): 16.4 µM
- GI50 (SNB-75 CNS): 1.19 µM
- TGI (SNB-75 CNS): 9.91 µM
- GI50 (CCRF-CEM leukemia): 3.9 µM
- TGI (CCRF-CEM leukemia): 26 µM
- GI50 (OVCAR-3 ovarian): 2.07 µM
- TGI (OVCAR-3 ovarian): 7.03 µM
- GI50 (NCI-H226 lung): 12.6 µM
- TGI (NCI-H226 lung): 28.1 µM
- GI50 (SW-620 colon): 2.47 µM
- TGI (SW-620 colon): 15.5 µM
- GI50 (SF-268 CNS): 5.39 µM
- TGI (SF-268 CNS): 20.6 µM
- GI50 (UO-31 renal): 1.85 µM
- TGI (UO-31 renal): 12.5 µM
- GI50 (SK-MEL-5 melanoma): 1.56 µM
- TGI (SK-MEL-5 melanoma): 3.47 µM
- GI50 (MDA-MB-231 breast): 1.72 µM
- TGI (MDA-MB-231 breast): 13.2 µM
- GI50 (A498 renal): 1.47 µM
- TGI (A498 renal): 6.75 µM
- GI50 (SK-OV-3 ovarian): 11.6 µM
- TGI (SK-OV-3 ovarian): 27.1 µM
- GI50 (NCI-H460 lung): 4.45 µM
- TGI (NCI-H460 lung): 17.2 µM
- GI50 (BT-549 breast): 3.56 µM
- TGI (BT-549 breast): 14.5 µM
- GI50 (MDA-MB-435): 0.392 µM
- TGI (MDA-MB-435): 1.41 µM
- GI50 (786-0 renal): 11.6 µM
- TGI (786-0 renal): 33.8 µM
- GI50 (MOLT-4 leukemia): 3.55 µM
- TGI (MOLT-4 leukemia): 12.7 µM
- GI50 (SN12C renal): 3.92 µM
- TGI (SN12C renal): 15.1 µM
- GI50 (SF-295 CNS): 4.93 µM
- TGI (SF-295 CNS): 18 µM
